In patent publication US11339171B2, “MDM2 inhibitors” (Gan & Lee Pharmaceuticals, priority 2017, dated 2022):
pIC50: −log10 of the molar value. Several values for one entry are separate records, joined by “and”; a condition that tells them apart may be missing. Identical values can stand only once. Like-named read-outs stand apart in the source and are kept apart here.

Tests used:
MDM2 = target: T1, MDM2 (Homo sapiens, UniProt Q00987); assay: Inhibition test of MDM2-P53 (GST-MDM2, Biotin-P53, Anti-GST-Tb, SA-XL665); assay type: binding
T1 construct: made in house
Procedure, shortened: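 Binding was measured by TR-FRET with GST-MDM2 at 4 nM final in PBS with 0.1% BSA, 5 mM DTT and 1 mM AEBSF. Compounds were tested as twelve-point 5-fold dilutions and incubated with the detection mix for 90 min at 25 °C with shaking before plate-reader reading and curve fitting.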

[1] = Pharmacokinetics in ICR mice after intravenous and intragastric administration; assay type: in vivo; conditions: for MRT last: read-out: MRT(0-t); for MRT inf: read-out: MRT(0-∞); for Tmax: read-out: Tmax; for Vd: read-out: Vz; for half-life: read-out: t1/2 (converted)
Procedure, shortened: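 Plasma concentrations by LC-MS/MS (range 1 to 2000 ng/ml) following single intravenous (2 mg/kg) or oral gavage (5 mg/kg) dosing of fasted male ICR mice, three per group. Vehicle 5% DMSO + 40% PEG400 + 55% (10% HP-β-CD in saline); standard PK parameters including bioavailability calculated.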

[2] = tested on: human osteosarcoma cell line SJSA-1; assay: Inhibition of proliferation of human osteosarcoma cell line SJSA-1 (DAPI staining, In Cell Analyzer); conditions: Homo sapiens, SJSA-1, 72 h, read-out: IC50 (nM), inhibitory activity on proliferation of human osteosarcoma cell line SJSA-1, SJSA-1, incubated 72 h
[3] = ICR mice, IV 2 mg/kg, individual animals 301-303, 2 mg/kg
[4] = ICR mice, PO 5 mg/kg, individual animals 401-403, 5 mg/kg
[5] = male, ICR, mouse, plasma, iv, 2 mg/kg, ICR mice, IV 2 mg/kg, individual animals 301-303
[6] = male, ICR, mouse, plasma, iv, 2 mg/kg, ICR mice, IV 2 mg/kg, mean of 3 animals
[7] = male, ICR, mouse, plasma, po, 5 mg/kg, ICR mice, PO 5 mg/kg, individual animals 401-403
[8] = male, ICR, mouse, plasma, po, 5 mg/kg, ICR mice, PO 5 mg/kg, mean of 3 animals

T1 sequence (Q00987 whole entry): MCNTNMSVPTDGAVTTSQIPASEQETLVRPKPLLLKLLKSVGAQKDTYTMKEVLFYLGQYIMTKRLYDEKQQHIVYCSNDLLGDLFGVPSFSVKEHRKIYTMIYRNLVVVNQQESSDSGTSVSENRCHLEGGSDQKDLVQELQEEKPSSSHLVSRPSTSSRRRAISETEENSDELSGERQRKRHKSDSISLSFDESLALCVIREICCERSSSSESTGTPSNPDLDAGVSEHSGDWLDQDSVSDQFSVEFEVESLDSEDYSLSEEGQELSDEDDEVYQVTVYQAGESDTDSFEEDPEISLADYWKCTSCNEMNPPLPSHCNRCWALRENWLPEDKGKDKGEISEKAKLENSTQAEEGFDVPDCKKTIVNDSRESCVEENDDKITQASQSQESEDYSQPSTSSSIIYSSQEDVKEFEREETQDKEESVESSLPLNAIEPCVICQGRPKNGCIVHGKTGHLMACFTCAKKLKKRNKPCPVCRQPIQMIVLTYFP

Structure (SMILES): COc1nc(N(C)C)ncc1-c1nc2c(n1C(C)C)[C@@]1(C(=O)Nc3cc(Cl)ccc31)N(c1cc(Cl)cnc1C)C2=O [Example S-135, (S)-6-chloro-5′-(5-chloro-2-methylpyridin-3-yl)-2′-(2-(dimethylamino)-4-methoxypyrimidin-5-yl)-3′-isopropyl-3′H-spiro[dihydroindole-3,4′-pyrrolo[3,4-d]imidazole]-2,6′(5′H)-dione]
- pIC50 (MDM2): 8.87
- AUC(0-t) [1, 3]: 7341.09 ng·h/mL and 6495.01 ng·h/mL
- AUC(0-∞) [1, 3]: 7977.92 ng·h/mL and 7378.29 ng·h/mL
- CL [1, 3]: 4.18 mL/min/kg and 4.52 mL/min/kg
- Cmax [1, 3]: 3518.53 ng/mL and 3314.60 ng/mL
- MRT(0-t) [1, 3]: 1.66 h and 1.70 h
- MRT(0-∞) [1, 3]: 2.21 h and 2.57 h
- Vz [1, 3]: 0.64 L/kg and 0.80 L/kg
- t1/2 [1, 3]: 1.78 h and 2.03 h
- F* ([1]; ICR mice, PO 5 mg/kg vs IV 2 mg/kg, mean): 48.91%
- AUC(0-t) [1, 4]: 7012.03 ng·h/mL and 9412.84 ng·h/mL
- AUC(0-∞) [1, 4]: 7126.47 ng·h/mL and 9616.11 ng·h/mL
- Cmax [1, 4]: 2014.04 ng/mL and 2249.28 ng/mL
- MRT(0-t) [1, 4]: 2.19 h and 2.43 h
- MRT(0-∞) [1, 4]: 2.32 h and 2.59 h
- t1/2 [1, 4]: 1.27 h and 1.34 h
- AUC(0-inf) [1, 5]: 7840 ng·h/mL
- clearance [1, 5]: 4.25 mL/min/kg
- AUC(0-t) ([1]; male, ICR, mouse, plasma, iv, 2 mg/kg, ICR mice, IV 2 mg/kg, individual animals 301-303, read-out: AUC(0-t)): 7270 ng·h/mL
- Cmax ([1]; male, ICR, mouse, plasma, iv, 2 mg/kg, ICR mice, IV 2 mg/kg, individual animals 301-303, read-out: Cmax): 3900 ng/mL
- MRT last [1, 5]: 1.6 h
- MRT inf [1, 5]: 2.09 h
- Tmax [1, 5]: 0.08 h
- Vd [1, 5]: 0.61 L/kg
- half-life [1, 5]: 1.65 h
- AUC(0-inf) [1, 6]: 7730 ng·h/mL
- clearance [1, 6]: 4.32 mL/min/kg
- AUC(0-t) ([1]; male, ICR, mouse, plasma, iv, 2 mg/kg, ICR mice, IV 2 mg/kg, mean of 3 animals, read-out: AUC(0-t)): 7040 ng·h/mL
- Cmax ([1]; male, ICR, mouse, plasma, iv, 2 mg/kg, ICR mice, IV 2 mg/kg, mean of 3 animals, read-out: Cmax): 3580 ng/mL
- MRT last [1, 6]: 1.65 h
- MRT inf [1, 6]: 2.29 h
- Tmax [1, 6]: 0.083 h
- Vd [1, 6]: 0.68 L/kg
- half-life [1, 6]: 1.82 h
- AUC(0-inf) [1, 7]: 9970 ng·h/mL
- AUC(0-t) ([1]; male, ICR, mouse, plasma, po, 5 mg/kg, ICR mice, PO 5 mg/kg, individual animals 401-403, read-out: AUC(0-t)): 9390 ng·h/mL
- Cmax ([1]; male, ICR, mouse, plasma, po, 5 mg/kg, ICR mice, PO 5 mg/kg, individual animals 401-403, read-out: Cmax): 2160 ng/mL
- MRT last [1, 7]: 2.64 h
- MRT inf [1, 7]: 3.12 h
- Tmax [1, 7]: 1 h
- half-life [1, 7]: 1.87 h
- AUC(0-inf) [1, 8]: 8910 ng·h/mL
- AUC(0-t) ([1]; male, ICR, mouse, plasma, po, 5 mg/kg, ICR mice, PO 5 mg/kg, mean of 3 animals, read-out: AUC(0-t)): 8600 ng·h/mL
- Cmax ([1]; male, ICR, mouse, plasma, po, 5 mg/kg, ICR mice, PO 5 mg/kg, mean of 3 animals, read-out: Cmax): 2140 ng/mL
- MRT last [1, 8]: 2.42 h
- MRT inf [1, 8]: 2.67 h
- Tmax [1, 8]: 1 h
- half-life [1, 8]: 1.49 h
- AUC(0-t) ([1]; male, ICR, mouse, plasma, po, 5 mg/kg, oral intragastric administration 5 mg/kg, read-out: AUC0-t): 8600 ng·h/mL
- IC50 [2]: 96.2 nM
